Data published in ChEMBL document CHEMBL4049396, “Enzymatic and solid-phase synthesis of new donepezil-based L- and d-glutamic acid derivatives and their pharmacological evaluation in models related to Alzheimer's disease and cerebral ischemia” (Eur J Med Chem, 2017).
Activity calls are given as the source filed them. The calls are words filed in the database; no cut-off is given here.

Experiments:
[1] = target: Cholinesterase (Homo sapiens, UniProt P06276); assay: Inhibition of human serum BuChE using butyrylthiocholine iodide as substrate pretreated for 5 mins followed by substrate addition measured for 5 mins by UV-Vis spectrophotometric method
Chain of Cholinesterase (P06276 whole entry): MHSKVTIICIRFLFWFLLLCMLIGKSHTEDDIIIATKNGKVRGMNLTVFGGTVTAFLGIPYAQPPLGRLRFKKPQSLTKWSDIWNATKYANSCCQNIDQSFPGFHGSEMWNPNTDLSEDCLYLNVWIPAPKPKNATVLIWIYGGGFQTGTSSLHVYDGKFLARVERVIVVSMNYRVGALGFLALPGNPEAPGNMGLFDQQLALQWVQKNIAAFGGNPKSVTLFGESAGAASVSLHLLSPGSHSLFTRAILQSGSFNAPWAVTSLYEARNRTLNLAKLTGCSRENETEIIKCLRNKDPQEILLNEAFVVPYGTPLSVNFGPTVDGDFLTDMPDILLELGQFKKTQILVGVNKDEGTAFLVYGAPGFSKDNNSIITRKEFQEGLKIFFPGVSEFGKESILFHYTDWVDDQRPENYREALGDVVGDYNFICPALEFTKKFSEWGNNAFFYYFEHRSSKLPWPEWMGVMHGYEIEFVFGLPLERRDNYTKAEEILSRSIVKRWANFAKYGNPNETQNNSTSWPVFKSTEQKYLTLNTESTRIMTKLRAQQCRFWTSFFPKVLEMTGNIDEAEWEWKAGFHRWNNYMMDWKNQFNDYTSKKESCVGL

[2] = target: Acetylcholinesterase (Homo sapiens, UniProt P22303); assay: Inhibition of recombinant human AChE expressed in HEK293 cells using acetylthiocholine iodide as substrate pretreated for 5 mins followed by substrate addition measured for 5 mins by UV-Vis spectrophotometric method
Chain of Acetylcholinesterase (P22303 whole entry): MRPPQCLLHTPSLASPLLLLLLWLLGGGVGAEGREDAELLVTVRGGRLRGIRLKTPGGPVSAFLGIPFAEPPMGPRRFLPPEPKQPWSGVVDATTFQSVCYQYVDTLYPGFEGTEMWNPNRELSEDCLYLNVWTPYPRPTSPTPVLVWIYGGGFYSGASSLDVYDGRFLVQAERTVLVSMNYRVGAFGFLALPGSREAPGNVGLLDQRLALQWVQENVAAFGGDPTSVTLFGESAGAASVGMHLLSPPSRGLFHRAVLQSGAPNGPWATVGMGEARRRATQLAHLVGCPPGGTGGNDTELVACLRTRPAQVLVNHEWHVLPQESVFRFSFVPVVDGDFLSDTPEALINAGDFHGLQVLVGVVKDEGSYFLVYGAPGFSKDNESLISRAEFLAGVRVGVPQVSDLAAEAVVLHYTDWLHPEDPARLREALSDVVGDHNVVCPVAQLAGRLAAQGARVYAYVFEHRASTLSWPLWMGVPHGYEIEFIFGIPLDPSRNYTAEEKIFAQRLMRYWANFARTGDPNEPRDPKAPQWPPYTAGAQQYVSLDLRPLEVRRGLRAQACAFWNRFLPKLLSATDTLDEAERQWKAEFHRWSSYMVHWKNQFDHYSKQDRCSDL

[3] = system: SH-SY5Y; assay: Cytotoxicity against human SH-SY5Y cells at 0.3 uM after 24 hrs by MTT assay; type: cell-based
[4] = system: SH-SY5Y; assay: Neuroprotective activity against rotenone/oligomycin A-induced mitochondrial oxidative stress in human SH-SY5Y cells assessed as cell survival at 0.3 uM pretreated for 24 hrs followed by rotenone/oligomycin A challenge measured after 24 hrs by MTT assay relative to control; type: functional; details: read-out: Survival
[5] = system: SH-SY5Y; assay: Neuroprotective activity against oxygen glucose deprivation/re-oxygenation-induced mitochondrial oxidative stress in human SH-SY5Y cells assessed as cell survival at 0.3 uM pretreated for 24 hrs followed by 4 hrs incubation under oxygen glucose deprivation medium and subsequent exposure to normoxic condition by MTT assay relative to control; type: functional; details: read-out: Survival
[6] = Antioxidant activity assessed as oxygen radical absorbance capacity at 10 uM; type: functional
[7] = physchem; details: PAMPA, pH 7.4
Description: Permeability of the compound at pH 7.4 at 1 mg/ml after 4 hrs by PAMPA-BBB assay

[8] = species: Homo sapiens; assay: Ratio of IC50 for recombinant human AChE expressed in HEK293 cells to IC50 for human serum BuChE; type: cell-based
[9] = target: T1, Voltage-gated L-type calcium channel (Homo sapiens, UniProt Q13936+Q13698+Q01668+O60840); assay: (§1) Inhibition of L-type voltage dependent calcium channel in human SH-SY5Y cells assessed as reduction in K+-induced cytosolic free calcium transient current preincubated for 15 mins followed by potassium challenge measured for 14 secs by Fluo-4AM dye based fluorescence assay; type: cell-based
[10] = target: T1, Voltage-gated L-type calcium channel; assay: as §1, with “current at 100 uM” for “current”, “assay relative to control” for “assay”; type: cell-based; details: 14 s
[11] = system: Hippocampus; assay: Neuroprotective activity in oxygen glucose deprivation/re-oxygenation-induced Sprague-Dawley rat hippocampal slice cerebral ischemia model assessed as cell viability at 1 uM incubated for 2 hrs under normoxic condition by MTT assay (reference value: 40%); type: functional
[12] = system: Hippocampus; assay: Neuroprotective activity in oxygen glucose deprivation/re-oxygenation-induced Sprague-Dawley rat hippocampal slice cerebral ischemia model assessed as cell viability at 3 uM incubated for 2 hrs under normoxic condition by MTT assay (reference value: 40%); type: functional
[13] = system: Hippocampus; assay: Neuroprotective activity in oxygen glucose deprivation/re-oxygenation-induced Sprague-Dawley rat hippocampal slice cerebral ischemia model assessed as increase in cell viability incubated for 2 hrs under normoxic condition by MTT assay; type: functional, tissue-based
[14] = Inhibition of L-type voltage dependent calcium channel in bovine Chromaffin cells assessed as reduction in K+-induced cytosolic free calcium transient current preincubated for 5 mins followed by potassium challenge measured by Fluo-4AM dye based fluorescence assay; type: cell-based; details: Bos taurus
[15] = species: Bos taurus; assay: Inhibition of L-type voltage dependent calcium channel in bovine Chromaffin cells assessed as reduction in K+-induced calcium current amplitude at 10 uM preincubated for 5 mins followed by potassium challenge measured by Fluo-4AM dye based fluorescence assay relative to control; type: cell-based
[16] = species: Bos taurus; assay: Inhibition of L-type voltage dependent calcium channel in bovine Chromaffin cells assessed as reduction in K+-induced calcium transient current area at 10 uM preincubated for 5 mins followed by potassium challenge measured by Fluo-4AM dye based fluorescence assay relative to control; type: cell-based
[17] = Antioxidant activity assessed as oxygen radical absorbance capacity at 10 uM relative to trolox; type: functional

SMILES: CCOC(=O)[C@H](CCC(=O)NCCC1CCN(Cc2ccccc2)CC1)NC(=O)c1ccc2cc(OC)ccc2c1
- IC50 [1]: 3.8 µM
- IC50 [2]: 0.89 µM
- Activity [3]: Non-Toxic
- viability at 0.3 µM [4]: 25.3%
- viability at 0.3 µM [5]: 37.7%
- Activity [6]: inactive
- Papp at 4 h, 1 mg/ml [7]: 8.3 ×10⁻⁶ cm/s

SMILES: CCOC(=O)CC[C@H](NC(=O)OCc1ccccc1)C(=O)NCCC1CCN(Cc2ccccc2)CC1
- IC50 [1]: 0.4 µM
- IC50 [2]: 4.99 µM
- Ratio IC50 [8]: 10
- Activity [3]: Non-Toxic
- viability at 0.3 µM [4]: 35.2%
- viability at 0.3 µM [5]: 42.7%
- IC50 [9]: 90.1 µM
- %max [10]: 63%
- Activity [11]: 48%
- Activity [12]: 69%
- Activity [13]: Dose-dependent effect
- Activity [6]: inactive
- Papp at 4 h, 1 mg/ml [7]: 21 ×10⁻⁶ cm/s

SMILES: CCCCCCOC(=O)[C@H](CCC(=O)NCCC1CCN(Cc2ccccc2)CC1)NC(=O)c1ccccc1
- Activity [3]: Non-Toxic
- viability at 0.3 µM [4]: 44.1%
- viability at 0.3 µM [5]: 53.4%
- IC50 [9]: 14.1 µM
- IC50 [14]: 5.31 µM
- inhibition [15]: 40%
- inhibition [16]: 80%
- Activity [12]: 55%
- Activity [6]: inactive

SMILES: O=C(CC[C@H](NC(=O)c1ccccc1)C(=O)O)NCCC1CCN(Cc2ccccc2)CC1
- IC50 [1]: > 10 µM
- IC50 [2]: 0.76 µM
- Activity [3]: Non-Toxic
- viability at 0.3 µM [4]: 46.5%
- viability at 0.3 µM [5]: 50.6%
- Activity [6]: inactive
- Papp at 4 h, 1 mg/ml [7]: 3.5 ×10⁻⁶ cm/s

SMILES: CCOC(=O)[C@@H](CCC(=O)NCCC1CCN(Cc2ccccc2)CC1)NC(=O)c1ccccc1
- IC50 [1]: 0.39 µM
- IC50 [2]: 0.5 µM
- Activity [3]: Non-Toxic
- viability at 0.3 µM [4]: 15.1%
- viability at 0.3 µM [5]: 39.8%
- Activity [6]: inactive
- Papp at 4 h, 1 mg/ml [7]: 6.6 ×10⁻⁶ cm/s

SMILES: CCCCCCOC(=O)[C@H](CCC(=O)NCCC1CCN(Cc2ccccc2)CC1)NC(=O)c1c[nH]c2ccccc12
- IC50 [1]: 1.85 µM
- IC50 [2]: 3.04 µM
- Activity [3]: Non-Toxic
- viability at 0.3 µM [4]: 22.1%
- viability at 0.3 µM [5]: 31.8%
- Activity [17]: 70 to 73%
- Papp at 4 h, 1 mg/ml [7]: 9.6 ×10⁻⁶ cm/s

SMILES: CCOC(=O)[C@H](CCC(=O)NCCC1CCN(Cc2ccccc2)CC1)NC(=O)c1c[nH]c2ccccc12
- IC50 [1]: 0.3 µM
- IC50 [2]: 1.9 µM
- Activity [3]: Non-Toxic
- viability at 0.3 µM [4]: 39.5%
- viability at 0.3 µM [5]: 42.4%
- Activity [17]: 70 to 73%
- Papp at 4 h, 1 mg/ml [7]: 4.5 ×10⁻⁶ cm/s

SMILES: O=C(CC[C@@H](NC(=O)c1ccccc1)C(=O)O)NCCC1CCN(Cc2ccccc2)CC1
- IC50 [1]: 82 µM
- IC50 [2]: 20 µM
- Activity [3]: Non-Toxic
- viability at 0.3 µM [4]: 22.6%
- viability at 0.3 µM [5]: 38.5%
- Activity [6]: inactive
- Papp at 4 h, 1 mg/ml [7]: 4.6 ×10⁻⁶ cm/s

SMILES: CCOC(=O)CC[C@@H](NC(=O)OCc1ccccc1)C(=O)OCC
- IC50 [1]: > 10 µM
- IC50 [2]: > 10 µM
- Activity [3]: Non-Toxic
- viability at 0.3 µM [4]: 34.7%
- viability at 0.3 µM [5]: 47.1%
- Activity [6]: inactive

SMILES: CCOC(=O)CC[C@@H](NC(=O)OCc1ccccc1)C(=O)NCCC1CCN(Cc2ccccc2)CC1
- IC50 [1]: 0.17 µM
- IC50 [2]: 3 µM
- Ratio IC50 [8]: 10
- Activity [3]: Non-Toxic
- viability at 0.3 µM [4]: 31.6%
- viability at 0.3 µM [5]: 47%
- Activity [6]: inactive
- Papp at 4 h, 1 mg/ml [7]: 16.7 ×10⁻⁶ cm/s

SMILES: CCOC(=O)CC[C@H](NC(=O)OCc1ccccc1)C(=O)OCC
- IC50 [1]: > 10 µM
- IC50 [2]: > 10 µM
- Activity [3]: Non-Toxic
- viability at 0.3 µM [4]: 37.3%
- viability at 0.3 µM [5]: 51.6%
- Activity [6]: inactive

SMILES: O=C(CC[C@H](NC(=O)c1c[nH]c2ccccc12)C(=O)O)NCCC1CCN(Cc2ccccc2)CC1
- IC50 [1]: 71 µM
- IC50 [2]: 6.4 µM
- Activity [3]: Non-Toxic
- viability at 0.3 µM [4]: 34.6%
- viability at 0.3 µM [5]: 48.4%
- Activity [17]: 70 to 73%
- Papp at 4 h, 1 mg/ml [7]: 1.8 ×10⁻⁶ cm/s

SMILES: CCCCCCOC(=O)[C@@H](CCC(=O)NCCC1CCN(Cc2ccccc2)CC1)NC(=O)c1ccccc1
- IC50 [1]: 0.36 µM
- IC50 [2]: 0.89 µM
- Activity [3]: Non-Toxic
- viability at 0.3 µM [4]: 13%
- viability at 0.3 µM [5]: 32.2%
- Activity [6]: inactive
- Papp at 4 h, 1 mg/ml [7]: 13.9 ×10⁻⁶ cm/s

SMILES: CCOC(=O)[C@H](CCC(=O)NCCC1CCN(Cc2ccccc2)CC1)NC(=O)c1ccccc1
- IC50 [1]: 1.3 µM
- IC50 [2]: 0.85 µM
- Activity [3]: Non-Toxic
- viability at 0.3 µM [4]: 38.6%
- viability at 0.3 µM [5]: 50.9%
- Activity [6]: inactive
- Papp at 4 h, 1 mg/ml [7]: 5.2 ×10⁻⁶ cm/s

SMILES: COc1ccc2[nH]cc(CCNC(C)=O)c2c1 [MELATONIN]
- viability at 0.3 µM [4]: 33.4%
- viability at 0.3 µM [5]: 31.4%

SMILES: COc1ccc2cc(C(=O)N[C@@H](CCC(=O)NCCC3CCN(Cc4ccccc4)CC3)C(=O)O)ccc2c1
- IC50 [1]: 97 µM
- IC50 [2]: 15.2 µM
- Activity [3]: Non-Toxic
- viability at 0.3 µM [4]: 35%
- viability at 0.3 µM [5]: 45%
- Activity [6]: inactive
